Laboratory results published in patent US20260347403A1, “FUNGICIDAL COMPOUND” (priority 2022, published 2026).
Read-outs that look alike come from different tables or passages of the source. Numbered stars: 1 amine (or outer) side, 2 acyl side, 3 side chain; on linkers, the order of the positions; unused ones are H or OH. Bridge positions count the residues as written; N and C are the ends. Square brackets hold non-standard residues; d marks the D form. Peptide text beside a SMILES is read from it. * marks the point of attachment. Tridecanoyl(12-Me) = CC(C)CCCCCCCCCCC(=O)*; X1 = NC(=O)CC(O)C(N[*:1])C(=O)[*:2]; NMeF = CN[CH](Cc1ccccc1)C(=O)O; NMeN = CN[CH](CC(N)=O)C(=O)O

Columns and labels:
[1] = test system: Puccinia recondita f. sp. tritici; experiment: Leaf painting assay in wheat seedling, Puccinia recondita; assay type: in vivo, Puccinia recondita f. sp. tritici on wheat (variety Arina); settings: for % reduction of fungal growth: middle segment
Procedure: Wheat seedlings of the variety Riband (for Zymoseptoria tritici trials) or variety Arina (for Puccinia recondite trials) were grown in a glasshouse until 14 d after seeding. At this time, such seedlings usually have a first leaf fully emerged (designated L1), a second leaf fully emerged (L2) and a third leaf (L3) that was partially emerged and in the process of development. Using a permanent pen, two dots were applied on the second leaf such as to generate three segments of roughly equal size: Segment A (at the base), segment B (middle part) and segment C (upper part of the leaf). A stock solution of the test compound was produced in DMSO at a concentration of 10′000 ppm. […] The diluted compound was applied to the middle segment of L2 using a conventional cotton stick; the cotton stick was soaked in the diluted compound and rubbed several times on the adaxial leaf surface between the two marks. 1 day later, the complete plant was inoculated with a fungal spore suspension using a paint brush and application of the spore suspension until before run-off.
For infection with Puccinia recondita: The test plants were inoculated by spraying them with a spore suspension 1 day after application (spore suspension at 80′000 spores per ml in water supplemented with Tween® 20 at 0.1%). After an incubation period of 1 day at 20 °C and 95% rh, the inoculated test plants were kept at 20 °C and 60% rh in a greenhouse.
The three segments of the leaf were evaluated individually.

Zymoseptoria tritici [2] = experiment: Liquid culture 96-well mixture assay with malonomicin, Zymoseptoria tritici, 72 hrs; assay type: cell-based; settings: read-out: control of fungal growth (% reduction)
Procedure: (§1) A stock solution for compound of Formula I(a) was produced in DMSO (max. 10 mg/ml). Malonomicin was produced according to Law et al, 2018 (Nature Catalys is |VOL 1|DECEMBER 2018|977-984). A stock solution of malonomicin was produced in water plus 0.025% Tween® 20.
(§2) Assays to test efficacy of mixtures of the lipopeptide compound of Formula I(a) in combination with malonomicin on the control of fungal pathogens in a liquid culture assay were designed for a 96well plate as outlined in table 1:
(§3) The 96 well plate design allows to compare disease control of the mixture with disease control of the respective single compound at the same rate.
(§4) A master plate with 10× concentrated solution of the compound stock solutions diluted in water plus 0.025% Tween® 20 was prepared. The concentration of DMSO (from the stock of compound of Formula (a)) and Tween® 20 was kept constant in all cells of the master plate. 10 μl was transferred from the master plate to a 96well test plate. The nutrient broth containing the fungal spores/mycelia fragments was then added to the test plate to give an end concentration of 1× for the tested compounds (as outlined in Table 8). The test plates were incubated in the dark at 24 °C and 96% rh. The inhibition of fungal growth was determined photometrically after ca 3 days, and percent fungal growth reduction relative to the untreated check was calculated.
Zymoseptoria tritici (EPPO Code: SEPTTR)
(§5) Conidia of the fungus from cryogenic storage were directly mixed into nutrient broth (PDB: potato dextrose broth).

Microdochium nivale = experiment: Liquid culture 96-well mixture assay with malonomicin, Microdochium nivale, 72 hrs; assay type: cell-based; settings: read-out: control of fungal growth (% reduction)
Procedure: as §1, §2, §3, §4
Microdochium nivale (EPPO Code: MONGNI)
as §5

Zymoseptoria tritici [3] = experiment: Liquid culture, Zymoseptoria tritici (Septoria tritici), Septoria leaf blotch, 4-5 days; assay type: cell-based; settings: Zymoseptoria tritici, read-out: % reduction fungal growth
Procedure: (§6) Mycelia fragments or conidia suspensions of a fungus, prepared either freshly from liquid cultures of the fungus or from cryogenic storage, were directly mixed into nutrient broth.
(§7) A stock solution for compound of Formula I(a) and Formula I(b) was produced in DMSO (max. 10 mg/ml), which was diluted with water plus 0.025% Tween®20 to produce a 10× concentrated sample and 10 μl of this solution was pipetted into a microtiter plate (96-well format). The nutrient broth containing the fungal spores/mycelia fragments was then added to give an end concentration of the tested compound. The test plates were incubated in the dark at 24 °C and 96% rh. The inhibition of fungal growth was determined photometrically after 2-7 days, depending on the pathosystem, and percent antifungal activity relative to the untreated check was calculated.
(§8) The effect of the test compound (Formula I(a), I(b) and Lipopeptin A) was tested against the following fungi under the conditions as outlined above and specifically herein below:
Zymoseptoria tritici (Septoria tritici)/liquid culture (Septoria leaf blotch) Conidia of the fungus from cryogenic storage were directly mixed into nutrient broth (PDB potato dextrose broth). The inhibition of growth was determined photometrically 4-5 days after application.

Mycosphaerella arachidis = experiment: Liquid culture, Mycosphaerella arachidis (Cercospora arachidicola), early leaf spot, 4-5 days; assay type: cell-based; settings: Mycosphaerella arachidis, read-out: % reduction fungal growth
Procedure: as §6, §7, §8
Mycosphaerella arachidis (Cercospora arachidicola)/liquid culture (early leaf spot) Conidia of the fungus from cryogenic storage were directly mixed into nutrient broth (PDB potato dextrose broth). The inhibition of growth was determined photometrically 4-5 days after application.

CC(C)CCCCCCCCCCC(=O)NC1C(=O)NC(CC(=O)O)C(=O)NC(C(O)CC(N)=O)C(=O)NC(CO)C(=O)N(C)C(CC(N)=O)C(=O)N(C)C(Cc2ccccc2)C(=O)NC(CCC(N)=O)C(=O)NC(CCC(=O)O)C(=O)OC1C (centres unmarked) [Formula I(a)] ({Tridecanoyl(12-Me)}-TD[X1]S[NMeN][NMeF]QE; ester 1-C; configuration not given here)
% reduction of fungal growth ([1]; 20 ppm): 70%
% reduction of fungal growth ([1]; 200 ppm): 61%
control on the treated area (middle segment) ([1]; up to, Table 6, Puccinia): up to 70%
inhibition of growth at 1.56 µg/mL (Zymoseptoria tritici [2]; I(a) 1.56 ppm): 0%
inhibition of growth at 3.125 µg/mL (Zymoseptoria tritici [2]; I(a) 3.125 ppm): 20%
inhibition of growth at 6.25 µg/mL (Zymoseptoria tritici [2]; I(a) 6.25 ppm): 50%
inhibition of growth at 12.5 µg/mL (Zymoseptoria tritici [2]; I(a) 12.5 ppm): 70%
inhibition of growth at 25 µg/mL (Zymoseptoria tritici [2]; I(a) 25 ppm): 70%
inhibition of growth at 50 µg/mL (Zymoseptoria tritici [2]; I(a) 50 ppm): 90%
inhibition of growth at 100 µg/mL (Zymoseptoria tritici [2]; I(a) 100 ppm): 90%
inhibition of growth at 1.56 µg/mL (Microdochium nivale; I(a) 1.56 ppm): 0%
inhibition of growth at 3.125 µg/mL (Microdochium nivale; I(a) 3.125 ppm): 0%
inhibition of growth at 6.25 µg/mL (Microdochium nivale; I(a) 6.25 ppm): 0%
inhibition of growth at 12.5 µg/mL (Microdochium nivale; I(a) 12.5 ppm): 0%
inhibition of growth at 25 µg/mL (Microdochium nivale; I(a) 25 ppm): 0%
inhibition of growth at 50 µg/mL (Microdochium nivale; I(a) 50 ppm): 0%
inhibition of growth at 100 µg/mL (Microdochium nivale; I(a) 100 ppm): 0%
inhibition of growth at 0.41 ppm (Zymoseptoria tritici [3]; Table 2): 0%
inhibition of growth at 1.2 ppm (Zymoseptoria tritici [3]; Table 2): 0%
inhibition of growth at 3.7 ppm (Zymoseptoria tritici [3]; Table 2): 0%
inhibition of growth at 11 ppm (Zymoseptoria tritici [3]; Table 2): 70%
inhibition of growth at 33 ppm (Zymoseptoria tritici [3]; Table 2): 100%
inhibition of growth at 100 ppm (Zymoseptoria tritici [3]; Table 2): 100%
inhibition of growth at 0.41 ppm (Zymoseptoria tritici [3]; Table 3): 0%
inhibition of growth at 1.2 ppm (Zymoseptoria tritici [3]; Table 3): 0%
inhibition of growth at 3.7 ppm (Zymoseptoria tritici [3]; Table 3): 0%
inhibition of growth at 11 ppm (Zymoseptoria tritici [3]; Table 3): 70%
inhibition of growth at 33 ppm (Zymoseptoria tritici [3]; Table 3): 90%
inhibition of growth at 100 ppm (Zymoseptoria tritici [3]; Table 3): 90%
inhibition of growth at 0.41 ppm (Mycosphaerella arachidis; Table 2): 0%
inhibition of growth at 1.2 ppm (Mycosphaerella arachidis; Table 2): 0%
inhibition of growth at 3.7 ppm (Mycosphaerella arachidis; Table 2): 100%
inhibition of growth at 11 ppm (Mycosphaerella arachidis; Table 2): 100%
inhibition of growth at 33 ppm (Mycosphaerella arachidis; Table 2): 100%
inhibition of growth at 100 ppm (Mycosphaerella arachidis; Table 2): 100%
inhibition of growth at 0.41 ppm (Mycosphaerella arachidis; Table 3): 0%
inhibition of growth at 1.2 ppm (Mycosphaerella arachidis; Table 3): 0%
inhibition of growth at 3.7 ppm (Mycosphaerella arachidis; Table 3): 0%
inhibition of growth at 11 ppm (Mycosphaerella arachidis; Table 3): 70%
inhibition of growth at 33 ppm (Mycosphaerella arachidis; Table 3): 100%
inhibition of growth at 100 ppm (Mycosphaerella arachidis; Table 3): 100%
